Format in all cases: cell-based, human
One test has as its system GABA receptors. Briefly: Electrophysiology of 1-week hiNSC cultures, functionality of GABA receptors. To be noted: hiNSCs cultured for one week. The method, then:
hiNSCs were grown on poly-L-lysine coated coverslips (Corning) in neurobasal media supplemented with 2% B27 (Invitrogen), 1% Glutamax, and 1% antibiotic-antimycotic for 1-8 weeks. Recordings were performed at 34° C. For whole-cell patch clamp experiments, pipettes contained saline (in mM): 130 K-gluconate, 10 KCl, 0.1 CaCl2, 2 Mg-ATP, 1.1 EGTA, and 10 HEPES, pH 7.4 KOH. Bath saline contained the following (in mM): 140 NaCl, 2.5 KCl, 2.5 CaCl2, 1.2 MgCl2, 10 HEPES, and 11 glucose, pH 7.4 NaOH.
To determine the functionality of GABA receptors, 1-week hiNSC cultures were assessed via known electrophsysiology methods (e.g., voltage ramp) in order to determine the response of neurons resulting from provided hiNSCs both in the presence of muscimol and in its absence.

Test [1] has as its system hiNSCs. Briefly: Differentiation of dissociated hiNSCs with retinoic acid added to basal media (immunostaining). To be noted: retinoic acid 10-100 μM. On the procedure:
(§1) To encourage spontaneous differentiation, hiNSC colonies were enzymatically removed from MEF feeder layers using TrypLE (Invitrogen), then dissociated as much as possible by manually pipetting. This cell suspension was sometimes further separated into a single cell suspension using a […] cell strainer to remove larger clumps. Dissociated hiNSCs were plated and cultured on multiple substrates including CELLstart (Invitrogen), laminin (Roche) or gelatin in hiNSC basal media without bFGF or in neurobasal media supplemented with 2% B27 (Invitrogen), 1% Glutamax, and 1% antibiotic-antimycotic. hiNSC cells began to show differentiation into BIII-tubulin (TUJ1)-positive immature neurons with visible neurite extensions in as little as 4 days. After two weeks in basal media, hiNSC cells spontaneously differentiated into more mature neuronal and glial subtypes. Adding various amounts of retinoic acid (10-100 μM) caused cells to differentiate into more mature neuronal phenotypes in a shorter amount of time (˜8 days). […] For guided differentiation, Shh (500 ng/ml, Peprotech), FGF8 (500 ng/ml, Peprotech), and RA (R&D) at concentrations between 10-100 μM were used to facilitate neuronal and glial differentiation within shorter culture periods (˜7-8 days). For differentiation studies in undefined media, DMEM supplemented with 10% FBS and 1% antibiotic-antimycotic was used. […]

For test [2], the system named is inhibitory GABA receptors. The test is described as follows: Live Fluo-4AM calcium imaging of hiNSC cultures. To be noted: two-week cultures; 200 μM picrotoxin just before imaging. The method, then: Cells plated onto coverslips or on 3D scaffolds were immersed in extracellular solution (NaCl 140 mM, KCl 2.8 mM, CaCl2 2 mM, MgCl2 2 mM, HEPES 10 mM, glucose 10 mM, pH=7.4, adjusted with NaOH). Fluo-4 (Invitrogen) calcium sensitive dye was mixed 1:1 with 20% Pluronic F127 (Invitrogen). Next, Fluo-4 was diluted to a final concentration of 1 μM in the extracellular buffer and pre-warmed to 37° C. The Fluo-4 1 μM solution was applied to cells and incubated at 37° C. for 1 hour. Upon incubation, cells were washed with the extracellular buffer to remove any unreacted dye. Cells were imaged using Olympus MVX10 macroscope (12.6× magnification) and Hamamatsu ORCA-Flash4.0 camera. The images were taken with the following setup: 15 ms exposure, 60 ms frame frequency, 512×512 pixel, 4×4 binning, […] over 3 minutes at room temperature. Some samples were treated with 200 μM picrotoxin (Sigma-Aldrich) just before imaging. The movie was created using ImageJ software (NIH).

In test [3] the test system is hiNSCs. The test is described as follows: Guided differentiation of hiNSCs into neuronal subtypes with growth factors in Neurobasal media (HB9 / TH immunostaining). To be noted: added to Neurobasal media; one week in culture; FGF8 500 ng/ml, Shh 500 ng/ml. The method, then: as §1

The values that follow come from patent US10662409B2, “Methods of generating neural stem cells” (Trustees of Tufts College, priority 2015, dated 2020).

Regarding `NCc1cc(=O)[nH]o1` [muscimol], in the test on GABA receptors, the “membrane potential response of hiNSCs to GABA agonist” value was “depolarizing response”.

Turning to `CC1=C(/C=C/C(C)=C/C=C/C(C)=C/C(=O)O)C(C)(C)CCC1` [retinoic acid], the “time to differentiate into more mature neuronal phenotypes” value with hiNSCs [1] is given as approximately 8 days.

Take picrotoxin: the “spontaneous calcium signaling in response to GABA receptor blocker” value in test [2] was “significantly activated”.

B1: FGF8: fibroblast growth factor 8 (Peprotech) added to culture media (protein, UniProt P55075 23-233, looked up)
Fibroblast growth factor 8: QEGPGRGPALGRELASLFRAGREPQGVSQQHVREQSLVTDQLSRRLIRTYQLYSRTSGKHVQVLANKRINAMAEDGDPFAKLIVETDTFGSRVRVRGAETGLYICMNKKGKLIAKSNGKGKDCVFTEIVLENNYTALQNAKYEGWYMAFTRKGRPRKGSKTRQHQREVHFMKRLPRGHHTTEQSLRFEFLNYPPFTRSLRGSQRTWAPEPR
Consider B1, for which the “staining of tyrosine hydroxylase (TH, marker of dopaminergic neurons)” value in the test on hiNSCs [3] was “increase”.
